Patent US6124293A, “Semi-synthetic ecteinascidins” (The Board of Trustees of the University of Illinois, priority 1999, dated 2000)

Legend:
[1] = system: L1210 murine leukemia; test: in vitro cytotoxicity to L1210 murine leukemia; type: cell-based; conditions: potency relative to Et 743
Source text: In view of the exceptional antitumor properties of the natural ecteinascidins, the present invention has studied the antitumor activities of the semi-synthetic analogs prepared herein.

[2] = system: P388 murine leukemia, B16 melanoma, Lewis lung carcinoma, and several human tumor xenograft models; conditions: activity against P388, B16, Lewis lung, human tumor xenografts in mice; cited from earlier work
[3] = system: B16 melanoma; conditions: recent experiments, NCI evaluation; cited from earlier work

| Structure (SMILES) | IC50 (Et 743)/IC50 [1] | efficacy in vivo [2] | survivors 60 days following infection with B16 melanoma [3] |
| --- | --- | --- | --- |
| COc1cc2c(cc1O)CCNC21CSC2c3c(OC(C)=O)c(C)c4c(c3C(COC1=O)N1C(O)C3Cc5cc(C)c(OC)c(O)c5C(C21)N3Cc1ccc(CN2C3Cc5cc(C)c(OC)c(O)c5C2C2C5SCC6(NCCc7cc(O)c(OC)cc76)C(=O)OCC(c6c7c(c(C)c(OC(C)=O)c65)OCO7)N2C3O)cc1)OCO4 (stereo not drawn) [Et 1560] | 0.25 |  |  |
| COc1cc2c(cc1O)CCN[C@]21CSC2c3c(OC(C)=O)c(C)c4c(c3C(COC1=O)N1C2C2NC(Cc3cc(C)c(OC)c(O)c32)[C@@H]1O)OCO4 (stereo partly drawn) [Et 729] | 10 | promising efficacy in vivo | 8 of 10 |
| COc1cc2c(cc1O)CCN(C)[C@]21CSC2c3c(OC(C)=O)c(C)c4c(c3C(COC1=O)N1C2C2c3c(cc(C)c(OC)c3O)CC([C@@H]1O)N2C)OCO4 (stereo partly drawn) [Et 757] | 50 |  |  |
| COc1c(C)cc2c(c1O)[C@H]1N[C@@H](C2)[C@H](O)N2[C@H]1[C@@H]1SC[C@]3(NCCc4c3[nH]c3ccccc43)C(=O)OC[C@H]2c2c3c(c(C)c(OC(C)=O)c21)OCO3 [Et 722] |  | promising efficacy in vivo |  |
| COc1cc2c(cc1O)CCN[C@]21CSC2c3c(OC(C)=O)c(C)c4c(c3C(COC1=O)N1C2C2c3c(cc(C)c(OC)c3O)CC([C@@H]1O)N2C)OCO4 (stereo partly drawn) [Et 743] |  | promising efficacy in vivo |  |
| COC(=O)C(C(=O)OC)[C@H]1C2Cc3cc(C)c(OC)c(O)c3C(C3C4SC[C@]5(NCCc6cc(O)c(OC)cc65)C(=O)OCC(c5c6c(c(C)c(OC(C)=O)c54)OCO6)N31)N2C (stereo partly drawn) [Et 875] | 1 |  |  |
| COc1cc2c(cc1O)CCN(C)[C@]21CSC2c3c(OC(C)=O)c(C)c4c(c3C(COC1=O)N1C2C2NC(Cc3cc(C)c(OC)c(O)c32)[C@@H]1O)OCO4 (stereo partly drawn) [Iso-Et 743] | 17 |  |  |
